This passage reports EC50 and inhibition results from ChEMBL document CHEMBL6182880, “TCM theory-inspired discovery of DNJ-flavonoid conjugates as broad-spectrum anti-SARS-CoV-2 agents by primarily targeting ER-associated glycoprotein folding process” (Eur J Med Chem, 2025).

What all share (type): functional, organism-based
In experiment [1] the test system is SARS-CoV-2. In words: Antiviral activity against SARS CoV-2 pseudovirus transfected in HEK293 cells harboring pLenti-GFP-Luc assessed as inhibition of viral entry into HeLa-ACE2 cells treated for 12 hrs prior to media replacement and measured after 48 hrs by luciferase assay. The conditions noted are these: Severe acute respiratory syndrome coronavirus 2, HeLa-ACE2.

For experiment [2], the system named is SARS-CoV-2. In words: Antiviral activity against SARS CoV-2 pseudovirus transfected in HEK293 cells harboring pLenti-GFP-Luc assessed as inhibition of viral entry into HeLa-ACE2 cells incubated with cells for 1 to 2 hrs prior to viral infection and measured after 48 hrs by luciferase assay. The conditions noted are these: Severe acute respiratory syndrome coronavirus 2, HeLa-ACE2.

In experiment [3] the test system is SARS-CoV-2. Description: Antiviral activity against SARS CoV-2 pseudovirus transfected in HEK293 cells harboring pLenti-GFP-Luc assessed as inhibition of viral entry into HeLa-ACE2 cells treated 1 to 6 hrs post-infection and measured after 48 hrs by luciferase assay. As to conditions: Severe acute respiratory syndrome coronavirus 2; call rule not given here.
In experiment [4] the test system is SARS-CoV-2. Description: Antiviral activity against SARS CoV-2 pseudovirus transfected in HEK293 cells harboring pLenti-GFP-Luc assessed as inhibition of viral packing process treated from 12 to 48 hrs post-transfection by luciferase assay. As to conditions: Severe acute respiratory syndrome coronavirus 2, HeLa-ACE2.
Experiment [5] concerns SARS-CoV-2. Description: Antiviral activity against SARS CoV-2 pseudovirus transfected in HEK293 cells harboring pLenti-GFP-Luc assessed as inhibition of viral packing process by luciferase assay. The conditions noted are these: Severe acute respiratory syndrome coronavirus 2; HeLa-ACE2; time 48.0 hrs.

A word on the EC50: it is the concentration at which the effect is half-maximal. On to `O=c1cc(-c2ccc(O)c(O)c2)oc2cc(O)cc(OCCCCCCCCCCN3C[C@H](O)[C@@H](O)[C@H](O)[C@H]3CO)c12`, for which the EC50 in the experiment with SARS-CoV-2 [1] was found to be 5.13 µM; in the experiment with SARS-CoV-2 [2], 7.52 µM; in the experiment with SARS-CoV-2 [4], 7.52 µM. Further, the figures for the inhibition entry with SARS-CoV-2 [3] and in the experiment with SARS-CoV-2 [5] were “Not active; Delay Of Time Of Addition Exerted A Time-Dependent Decrease In Viral Entry Inhibition” and “Time-dependent-effect”, respectively.
